Reference: patent publication USRE48711E1, “Apoptosis signal-regulating kinase inhibitors” (Gilead Sciences, Inc., priority 2009, dated 2021)

Molecular target: ASK1 (Apoptosis Signal-Regulating Kinase 1) (Homo sapiens (Human), UniProt Q99683)
Experiment: ASK1 (Apoptosis Signal-Regulating Kinase 1) TR-FRET Kinase Assay (Biochemical IC50)
Conditions: TR-FRET, biotin-MBP substrate, 20 min pre-incubation, ATP added as 300 μM solution

Sequence of ASK1 (Apoptosis Signal-Regulating Kinase 1) (Q99683 649-946): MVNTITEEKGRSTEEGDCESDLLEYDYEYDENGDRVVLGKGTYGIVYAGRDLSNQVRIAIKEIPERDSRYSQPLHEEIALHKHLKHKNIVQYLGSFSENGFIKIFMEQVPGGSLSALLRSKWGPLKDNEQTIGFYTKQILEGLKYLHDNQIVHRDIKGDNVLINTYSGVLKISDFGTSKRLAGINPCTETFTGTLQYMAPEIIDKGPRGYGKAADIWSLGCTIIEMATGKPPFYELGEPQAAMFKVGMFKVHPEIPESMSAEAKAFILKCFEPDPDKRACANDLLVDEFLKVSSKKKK

| IC50 | Structure (SMILES) |
| --- | --- |
| 47 nM | Cc1ccc(-n2cnc(C3CC3)c2)cc1C(=O)Nc1cccc(-c2nncn2C2CC2)n1 [Example 197, 5-(4-cyclopropyl-1H-imidazol-1-yl)-N-(6-(4-cyclopropyl-4H-1,2,4-triazol-3-yl)pyridin-2-yl)-2-methylbenzamide] |
| 19 nM | O=C(Nc1cccc(-c2nncn2C2CC2)c1)c1cc(-n2cnc(C(F)(F)C(F)(F)F)c2)ccn1 [Example 198, N-(3-(4-cyclopropyl-4H-1,2,4-triazol-3-yl)phenyl)-4-(4-(perfluoroethyl)-1H-imidazol-1-yl)picolinamide] |
| 9 nM | O=C(Nc1cccc(-c2nncn2C2CC2)n1)c1cc(-n2cnc(C(F)(F)C(F)(F)F)c2)ccn1 [Example 199, N-(6-(4-cyclopropyl-4H-1,2,4-triazol-3-yl)pyridin-2-yl)-4-(4-(perfluoroethyl)-1H-imidazol-1-yl)picolinamide] |
| 11 nM | Cc1ccc(C(=O)Nc2cccc(-c3nncn3C3CC3)n2)cc1-n1cnc(C2CC2)c1 [Example 200, 3-(4-cyclopropyl-1H-imidazol-1-yl)-N-(6-(4-cyclopropyl-4H-1,2,4-triazol-3-yl)pyridin-2-y1)-4-methylbenzamide] |
| 14 nM | O=C(Nc1cccc(-c2nncn2C2CC2)n1)c1cc(-n2cnc(C3CC3)n2)ccn1 [Example 201, 4-(3-cyclopropyl-1H-1,2,4-triazol-1-yl)-N-(6-(4-cyclopropyl-4H-1,2,4-triazol-3-yl)pyridin-2-yl)picolinamide] |
| 17 nM | O=C(Nc1cccc(-c2nncn2C2CC2)c1)c1cc(-n2cnc(C3CC3)n2)ccn1 [Example 202, 4-(3-cyclopropyl-1H-1,2,4-triazol-1-yl)-N-(3-(4-cyclopropyl-4H-1,2,4-triazol-3-yl)phenyl)picolinamide] |
| 538 nM | O=C(Nc1cccc(-c2nncn2C2CC2)c1)c1cc(-n2ncnc2C2CC2)ccn1 [Example 203, 4-(5-cyclopropyl-1H-1,2,4-triazol-1-yl)-N-(3-(4-cyclopropyl-4H-1,2,4-triazol-3-yl)phenyl)picolinamide] |
| 17 nM | CC(C)(O)c1ccc(-c2cccc(C(=O)Nc3cccc(-c4nncn4C4CC4)n3)c2)cn1 [Example 204, N-(6-(4-cyclopropyl-4H-1,2,4-triazol-3-yl)pyridin-2-yl)-3-(6-(2-hydroxypropan-2-yl)pyridin-3-yl)benzamide] |
| 9 nM | O=C(Nc1cccc(-c2nncn2C2CC2)n1)c1cc(F)cc(-n2cnc(C3CC3)c2)c1 [Example 205, 3-(4-cyclopropyl-1H-imidazol-1-yl)-N-(6-(4-cyclopropyl-4H-1,2,4-triazol-3-yl)pyridin-2-yl)-5-fluorobenzamide] |
| 9 nM | O=C(Nc1cccc(-c2nncn2C2CC2)c1)c1cc(-n2cnc(C(O)C(F)(F)F)c2)ccn1 (stereo not shown) [Example 206, N-(3-(4-cyclopropyl-4H-1,2,4-triazol-3-yl)phenyl)-4-(4-(2,2,2-trifluoro-1-hydroxyethyl)-1H-imidazol-1-yl)picolinamide] |
| 11 nM | O=C(Nc1cccc(-c2nncn2C2CC2)n1)c1cc(-n2cnc(C(O)C(F)(F)F)c2)ccn1 (stereo not shown) [Example 207, N-(6-(4-cyclopropyl-4H-1,2,4-triazol-3-yl)pyridin-2-yl)-4-(4-(2,2,2-trifluoro-1-hydroxyethyl)-1H-imidazol-1-yl)picolinamide] |
| 5 nM | O=C(Nc1cccc(-c2nncn2C2CC2)n1)c1cccc(-n2cnc(C(O)C(F)(F)F)c2)c1 (stereo not shown) [Example 208, N-(6-(4-cyclopropyl-4H-1,2,4-triazol-3-yl)pyridin-2-yl)-3-(4-(2,2,2-trifluoro-1-hydroxyethyl)-1H-imidazol-1-yl)benzamide] |
| 7 nM | Cc1cc(C(=O)Nc2cccc(-c3nncn3C3CC3)n2)cc(-n2cnc(C3CC3)c2)c1 [Example 209, 3-(4-cyclopropyl-1H-imidazol-1-yl)-N-(6-(4-cyclopropyl-4H-1,2,4-triazol-3-yl)pyridin-2-yl)-5-methylbenzamide] |
| 9 nM | Cc1ncn(-c2cccc(C(=O)Nc3cccc(-c4nncn4C4CC4)n3)c2)c1C [Example 211, N-(6-(4-cyclopropyl-4H-1,2,4-triazol-3-yl)pyridin-2-yl)-3-(4,5-dimethyl-1H-imidazol-1-yl)benzamide] |
| 9 nM | O=C(Nc1cccc(-c2nncn2C2CC2)n1)c1cccc(-n2cnc3c2CCCC3)c1 [Example 212, N-(6-(4-cyclopropyl-4H-1,2,4-triazol-3-yl)pyridin-2-yl)-3-(4,5,6,7-tetrahydro-1H-benzo[d]imidazol-1-yl)benzamide] |
| 11 nM | Cc1c(C(=O)O)ncn1-c1cccc(C(=O)Nc2cccc(-c3nncn3C3CC3)n2)c1 [Example 213, 1-(3-(6-(4-cyclopropyl-4H-1,2,4-triazol-3-yl)pyridin-2-ylcarbamoyl)phenyl)-5-methyl-1H-imidazole-4-carboxylic acid] |
| 159 nM | C[C@@H](c1ccccc1)n1cnnc1-c1cccc(NC(=O)c2cccc(-n3cnc(C4CC4)c3)c2)n1 [Example 214, (S)-3-(4-cyclopropyl-1H-imidazol-1-yl)-N-(6-(4-(1-phenylethyl)-4H-1,2,4-triazol-3-yl)pyridin-2-yl)benzamide] |

| IC50 | Structure (SMILES) |
| --- | --- |
| 30 nM | Cc1cnc(C(=O)Nc2cccc(-c3nncn3C3CC3)n2)cc1-c1ccc(C2CC2)nc1 [Example 215, 6-cyclopropyl-N-(6-(4-cyclopropyl-4H-1,2,4-triazol-3-yl)pyridin-2-yl)-5′-methyl-3,4′-bipyridine-2′-carboxamide] |
| 8 nM | Cc1ncn(-c2cccc(C(=O)Nc3cccc(-c4nncn4[C@@H](C)C(F)(F)F)n3)c2)c1C [Example 216, (S)-3-(4,5-dimethyl-1H-imidazol-1-yl)-N-(6-(4-(1,1,1-trifluoropropan-2-yl)-4H-1,2,4-triazol-3-yl)pyridin-2-yl)benzamide] |
| 14 nM | C[C@@H](c1ccccc1)n1cnnc1-c1cccc(NC(=O)c2cccc(-n3cnc(C4CC4)c3)c2)n1 [Example 217, (S)-3-(4-cyclopropyl-1H-imidazol-1-yl)-N-(6-(4-(1-phenylethyl)-4H-1,2,4-triazol-3-yl)pyridin-2-yl)benzamide] |
| 16 nM | CC(C)n1cnnc1-c1cccc(NC(=O)c2cc(-c3ccc(C4CC4)nc3)ccn2)c1 [Example 219, 6-cyclopropyl-N-(3-(4-isopropyl-4H-1,2,4-triazol-3-yl)phenyl)-3,4′-bipyridine-2′-carboxamide] |
| 61 nM | C[C@@H](c1ccccc1)n1cnnc1-c1cccc(NC(=O)c2cc(-c3ccc(C4CC4)nc3)ccn2)c1 [Example 220, (S)-6-cyclopropyl-N-(3-(4-(1-phenylethyl)-4H-1,2,4-triazol-3-yl)phenyl)-3,4′-bipyridine-2′-carboxamide] |
| 31 nM | O=C(Nc1cccc(-c2nncn2C2CCC2)c1)c1cc(-c2ccc(C3CC3)nc2)ccn1 [Example 221, N-(3-(4-cyclobutyl-4H-1,2,4-triazol-3-yl)phenyl)-6-cyclopropyl-3,4′-bipyridine-2′-carboxamide] |
| 79 nM | C[C@@H](C(=O)OC(C)(C)C)n1cnnc1-c1cccc(NC(=O)c2cc(-c3ccc(C4CC4)nc3)ccn2)c1 [Example 222, (S)-tert-butyl 2-(3-(3-(6-cyclopropyl-3,4′-bipyridine-2′-carboxamido)phenyl)-4H-1,2,4-triazol-4-yl)propanoate] |
| 45 nM | C[C@H](n1cnnc1-c1cccc(NC(=O)c2cc(-c3ccc(C4CC4)nc3)ccn2)c1)C(F)(F)F [Example 223, (S)-6-cyclopropyl-N-(3-(4-(1,1,1-trifluoropropan-2-yl)-4H-1,2,4-triazol-3-yl)phenyl)-3,4′-bipyridine-2′-carboxamide] |
| 13 nM | O=C(Nc1cccc(-c2nncn2C2CC2)n1)c1cc(-c2ccc(C3CC3)nc2)ccc1F [Example 224, N-(6-(4-cyclopropyl-4H-1,2,4-triazol-3-yl)pyridin-2-yl)-5-(6-cyclopropylpyridin-3-yl)-2-fluorobenzamide] |
| 103 nM | O=C(Nc1cccc(-c2nncn2C2CC2)n1)c1cc(-c2ccc(C3CC3)nc2)c2ccccc2n1 [Example 225, N-(6-(4-cyclopropyl-4H-1,2,4-triazol-3-yl)pyridin-2-yl)-4-(6-cyclopropylpyridin-3-yl)quinoline-2-carboxamide] |
| 16 nM | O=C(Nc1cccc(-c2nncn2C2CC2)n1)c1cc(-n2cnc(C3CC3)c2)c2ccccc2n1 [Example 226, 4-(4-cyclopropyl-1H-imidazol-1-yl)-N-(6-(4-cyclopropyl-4H-1,2,4-triazol-3-yl)pyridin-2-yl)quinoline-2-carboxamide] |
| 8 nM | O=C(Nc1cccc(-c2nncn2C2CC2)n1)c1ccc(Cl)c(-n2cnc(C3CC3)c2)c1 [Example 227, 4-chloro-3-(4-cyclopropyl-1H-imidazol-1-yl)-N-(6-(4-cyclopropyl-4H-1,2,4-triazol-3-yl)pyridin-2-yl)benzamide] |
| 7 nM | COc1ccc(C(=O)Nc2cccc(-c3nncn3C3CC3)n2)cc1-n1cnc(C2CC2)c1 [Example 228, 3-(4-cyclopropyl-1H-imidazol-1-yl)-N-(6-(4-cyclopropyl-4H-1,2,4-triazol-3-yl)pyridin-2-yl)-4-methoxybenzamide] |
| 101 nM | CCC(C)n1cnnc1-c1cccc(NC(=O)c2cc(-c3ccc(C4CC4)nc3)ccn2)c1 (stereo not shown) [Example 229, N-(3-(4-sec-butyl-4H-1,2,4-triazol-3-yl)phenyl)-6-cyclopropyl-3,4′-bipyridine-2′-carboxamide] |
| 58 nM | C[C@@H](C1CC1)n1cnnc1-c1cccc(NC(=O)c2cc(-c3ccc(C4CC4)nc3)ccn2)c1 [Example 230, (S)-6-cyclopropyl-N-(3-(4-(1-cyclopropylethyl)-4H-1,2,4-triazol-3-yl)phenyl)-3,4′-bipyridine-2′-carboxamide] |
| 1420 nM | CCC(CC)n1cnnc1-c1cccc(NC(=O)c2cc(-c3ccc(C4CC4)nc3)ccn2)c1 [Example 231, 6-cyclopropyl-N-(3-(4-(pentan-3-yl)-4H-1,2,4-triazol-3-yl)phenyl)-3,4′-bipyridine-2′-carboxamide] |
| 17 nM | COC[C@H](C)n1cnnc1-c1cccc(NC(=O)c2cc(-c3ccc(C4CC4)nc3)ccn2)c1 [Example 232, (S)-6-cyclopropyl-N-(3-(4-(1-methoxypropan-2-yl)-4H-1,2,4-triazol-3-yl)phenyl)-3,4′-bipyridine-2′-carboxamide] |
